Measurements reported in patent US8604217B2, “Compound, a process for its preparation, a pharmaceutical composition, use of a compound, a method for modulating or regulating serine/threonine kinases and a serine/threonine kinases modulating agent” (Selvita S.A., priority 2009, dated 2013).

Tests used:
PIM-1 = PIM-1 (Homo sapiens (Human), UniProt P11309); test: Luminometric kinase assay for PIM1 kinase (Kinase-Glo); type: biochemical; conditions: 1 μM ATP, 25 min at RT
Protocol: Kinase assay was performed using luminescent Kinase-Glo® (Promega) system. The Kinase-Glo® Luminescent Kinase Assay Platform provides a homogeneous, high-throughput screening method for measuring kinase activity by quantifying the amount of ATP remaining in solution following a kinase reaction. The luminescent signal is correlated with the amount of ATP present and is inversely correlated with the kinase activity. Appropriate amounts of both kinase and substrate were mixed in 96-well, white wall plate in the reaction buffer (8 mM MOPS/NaOH, pH7.0, 0.2 mM EDTA, 2 mM MgCl2). Tested compounds were diluted in DMSO and serial dilutions starting with 1 μM were added to the palates. Reaction was initiated by adding 1 μM of ATP solution and conducted for 25 min. at RT. Luminescent signal was detected by adding Kinase-Glo® reagent and measured using a microplate spectrophotometer (Synergy 2 multi-mode microplate reader (BioTek)). IC50 values were obtained by fitting sigmoidal dose-response curve (variable slope) using GraphPad Prism software.

[1] = system: human myelomonocytic, biphenotypic leukemia MV4-11 cells; test: Growth inhibition test (MTS) on MV4-11 cells; type: cell-based; conditions: Homo sapiens, MV4-11, 72 hours, read-out: MV-4-11 ED50
Protocol: (§1) Ten thousand cells of human myelomonocytic, biphenotypic leukemia MV4-11 were inoculated into each well of a 96-well microplate (manufactured by Corning Corp.) using Iscove's MDM medium (culture medium) containing 10% fetal calf serum (FCS). Next day, a dimethyl sulfoxide (DMSO) solution of each test compound prepared in a concentration of 10 mmol/L was further diluted with culture medium to the desired concentrations (0.1, 0.5, 1, 2.5, 5 and 10 micromol/L), and the diluted solution was added to each well. The individual wells were further cultured in 5% carbon dioxide at 37° C. for 72 hours. After completion of the culture, 10 μl MTS (3-(4,5-Dimethyl-2-thiazolyl)-5-(carboxymethoxyphenyl)-2-(4-sulfophenyl)-2H-tetrazolium, inner salt assay (CellTiter96® AQueous One Solution Cell Proliferation Assay, Promega) was added to each well, and culturing was performed in 5% carbon dioxide at 37° C. for 2 hours. Using a microplate spectrophotometer (Synergy 2 multi-mode microplate reader (BioTek)), the absorbance of each well was measured at 490 nm. The value for cells not incorporated with a test compound was designated as 100%. By comparing these values with the absorbance difference obtained at the well in which each test compound was added, the cell viability (% viability) after treatment with the test compound was calculated.

[2] = system: human hepatoma HepG2 cells; test: Growth inhibition test (MTS) on HepG2 cells; type: cell-based; conditions: 72 hours, read-out: HepG2 ED50
Protocol: as §1, with “Two” for “Ten”, “hepatoma HepG2” for “myelomonocytic, biphenotypic leukemia MV4-11”, “DMEM” for “Iscove's MDM”

[3] = system: human prostate adenocarcinoma PC3 cells; test: Growth inhibition test (MTS) on PC3 cells; type: cell-based; conditions: Homo sapiens, PC-3, 72 hours, read-out: PC-3 ED50
Excerpt: as §1, with “Two” for “Ten”, “prostate adenocarcinoma PC3” for “myelomonocytic, biphenotypic leukemia MV4-11”, “Corp.), and” for “Corp.)”, “F12K (Ham's F12:[…] 1:1)” for “Iscove's MDM”

[4] = system: human breast adenocarcinoma MCF7 cells; test: Growth inhibition test (MTS) on MCF7 cells; type: cell-based; conditions: Homo sapiens, MCF7, 72 hours, read-out: MCF-7 ED50
Protocol: as §1, with “Two” for “Ten”, “breast adenocarcinoma MCF7” for “myelomonocytic, biphenotypic leukemia MV4-11”, “Corp.), and” for “Corp.)”, “DMEM” for “Iscove's MDM”

Chain of PIM-1 (P11309 whole entry): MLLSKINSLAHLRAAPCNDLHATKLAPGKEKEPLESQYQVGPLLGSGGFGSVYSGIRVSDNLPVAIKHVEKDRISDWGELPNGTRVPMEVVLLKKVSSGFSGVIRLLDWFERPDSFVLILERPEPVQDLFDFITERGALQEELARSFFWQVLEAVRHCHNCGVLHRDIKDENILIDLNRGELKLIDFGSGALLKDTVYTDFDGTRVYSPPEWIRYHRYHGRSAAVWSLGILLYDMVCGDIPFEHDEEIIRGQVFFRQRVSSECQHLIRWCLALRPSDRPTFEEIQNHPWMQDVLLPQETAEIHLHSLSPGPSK

Row | Compound | IC50 (PIM-1) [µM] | IC50 [1] [µM] | IC50 [2] [µM] | IC50 [3] [µM] | IC50 [4] [µM]
1 | Nc1ccc(Nc2nc3c(Br)c(Br)c(Br)c(Br)c3[nH]2)cc1 [Compound 86, N1-(4,5,6,7-tetrabromo-1H-benzo[d]imidazol-2-yl)benzene-1,4-diamine] | 0.066 |  |  |  | 
2 | Brc1c(Br)c(Br)c2[nH]c(NCc3ccccc3)nc2c1Br [Compound 82, N-benzyl-4,5,6,7-tetrabromo-1H-benzo[d]imidazol-2-amine] | 0.2 |  |  |  | 
3 | Oc1ncc(Nc2nc3c(Br)c(Br)c(Br)c(Br)c3[nH]2)c(O)n1 [Compound 303, 5-(4,5,6,7-tetrabromo-1H-benzo[d]imidazol-2-ylamino)pyrimidine-2,4-diol] | 0.128 |  |  |  | 
4 | Brc1c(Br)c(Br)c2[nH]c(NCC3CCNCC3)nc2c1Br [Compound 67, 4,5,6,7-tetrabromo-N-((piperidin-4-yl)methyl)-1H-benzo[d]imidazol-2-amine] | 0.0652 |  |  |  | 
5 | Brc1c(Br)c(Br)c2[nH]c(NCCc3ccccn3)nc2c1Br [Compound 128, 4,5,6,7-tetrabromo-N-(2-(pyridin-2-yl)ethyl)-1H-benzo[d]imidazol-2-amine] | 0.0713 | 3.83 |  |  | 
6 | Cc1nccn1CC1CCCN(c2nc3c(Br)c(Br)c(Br)c(Br)c3[nH]2)C1 (stereo not shown) [Compound 262, 4,5,6,7-tetrabromo-2-(3-((2-methyl-1H-imidazol-1-yl)methyl)piperidin-1-yl)-1H-benzo[d]imidazole] | 0.0614 |  |  |  | 
7 | CN(C)CCCN(Cc1ccccc1)c1nc2c(Br)c(Br)c(Br)c(Br)c2[nH]1 [Compound 85, N-benzyl-4,5,6,7-tetrabromo-N-(3-(dimethylamino)propyl)-1H-benzo[d]imidazol-2-amine] | 0.0653 | 2.66 | 2.84 | 5.84 | 4.12
8 | CN(C)CCN(Cc1ccccc1)c1nc2c(Br)c(Br)c(Br)c(Br)c2n1Cc1ccccc1 [Compound 95, N,1-dibenzyl-4,5,6,7-tetrabromo-N-(2-(dimethylamino)ethyl)-1H-benzo[d]imidazol-2-amine] | 0.0757 | 7.61 |  |  | 
9 | Cc1c(Nc2nc3c(Br)c(Br)c(Br)c(Br)c3[nH]2)cccc1-c1nncn1C [Compound 248, 4,5,6,7-tetrabromo-N-(2-methyl-3-(4-methyl-4H-1,2,4-triazol-3-yl)phenyl)-1H-benzo[d]imidazol-2-amine] | 0.0489 |  |  |  | 
10 | Brc1c(Br)c(Br)c2[nH]c(N3CCCC(CN4CCN(c5ccccn5)CC4)C3)nc2c1Br (stereo not shown) [Compound 266, 4,5,6,7-tetrabromo-2-(3-((4-(pyridin-2-yl)piperazin-1-yl)methyl)piperidin-1-yl)-1H-benzo[d]imidazole] | 0.294 | 2.55 | 2.48 |  | 
11 | Brc1c(Br)c(Br)c2[nH]c(N3CCN4CCC3CC4)nc2c1Br [Compound 350, 2-(4,5,6,7-tetrabromo-1H-benzo[d]imidazol-2-yl)-2,5-diaza-bicyclo[3.2.2]nonane] | 0.0327 | 5.52 | 5.55 | 8.48 | 6.55
12 | CN(Cc1ccccc1)c1nc2c(Br)c(Br)c(Br)c(Br)c2[nH]1 [Compound 117, N-benzyl-4,5,6,7-tetrabromo-N-methyl-1H-benzo[d]imidazol-2-amine] | 0.0856 | 9.4 |  |  | 
13 | Brc1c(Br)c(Br)c2[nH]c(Nc3ccccc3)nc2c1Br [Compound 79, 4,5,6,7-tetrabromo-N-phenyl-1H-benzo[d]imidazol-2-amine] | 0.0682 |  | 6.52 |  | 
14 | Brc1c(Br)c(Br)c2[nH]c(NCCCN3CCCCC3)nc2c1Br [Compound 59, 4,5,6,7-tetrabromo-N-(3-(piperidin-1-yl)propyl)-1H-benzo[d]imidazol-2-amine] | 0.0508 |  | 3.6 |  | 

Second part, led by results:

Row | IC50 (PIM-1) [µM] | IC50 [1] [µM] | IC50 [2] [µM] | IC50 [3] [µM] | Compound | IC50 [4] [µM]
15 | 0.0395 | 3.77 |  |  | Brc1c(Br)c(Br)c2[nH]c(N3CCNc4ccccc43)nc2c1Br [Compound 367, 1-(4,5,6,7-tetrabromo-1H-benzo[d]imidazol-2-yl)-1,2′,3,4-tetrahydroquinoxaline] | 
16 | 0.0368 |  |  |  | CN(C)CCN1CCN(c2nc3c(Br)c(Br)c(Br)c(Br)c3[nH]2)CC1 [Compound 343, 2-(4-(4,5,6,7-tetrabromo-1H-benzo[d]imidazol-2-yl)piperazin-1-yl)-N,N-dimethylethanamine] | 
17 | 0.037 |  |  |  | Brc1c(Br)c(Br)c2[nH]c(Nc3ccncc3)nc2c1Br [Compound 28, 4,5,6,7-tetrabromo-N-(pyridin-4-yl)-1H-benzo[d]imidazol-2-amine] | 
18 | 0.0148 | 1.36 |  |  | N[C@@H]1CC=CC[C@H]1Nc1nc2c(Br)c(Br)c(Br)c(Br)c2[nH]1 (relative stereo) [Compound 331, Trans N1-(4,5,6,7-tetrabromo-1H-benzo[d]imidazol-2-yl)cyclohex-4-ene-1,2-diamine] | 
19 | 0.0286 |  |  |  | CN(c1ccccc1)c1nc2c(Br)c(Br)c(Br)c(Br)c2[nH]1 [Compound 342, 4,5,6,7-tetrabromo-N-methyl-N-phenyl-1H-benzo[d]imidazol-2-amine] | 
20 | 0.00885 |  | 7.35 | 8.33 | NCCCCNc1nc2c(Br)c(Br)c(Br)c(Br)c2[nH]1 [Compound 61, N-(4-aminobutyl)-4,5,6,7-tetrabromo-1H-benzo[d]imidazol-2-amine] | 
21 | 0.0131 |  | 3.98 | 6.52 | NCC(O)CNc1nc2c(Br)c(Br)c(Br)c(Br)c2[nH]1 (stereo not shown) [Compound 90, 1-(4,5,6,7-tetrabromo-1H-benzo[d]imidazol-2-ylamino)-3-aminopropan-2-ol] | 
22 | 0.0141 | 5.34 |  |  | OC1CCCCC1Nc1nc2c(Br)c(Br)c(Br)c(Br)c2[nH]1 (stereo not shown) [Compound 334, 2-(4,5,6,7-tetrabromo-1H-benzo[d]imidazol-2-ylamino)cyclohexanol] | 
23 | 0.0133 | 7.68 |  |  | Brc1c(Br)c(Br)c2[nH]c(N3CCCC3)nc2c1Br [Compound 18, 4,5,6,7-tetrabromo-2-(pyrrolidin-1-yl)-1H-benzo[d]imidazole] | 
